Measured values taken from patent US6723897B2, “Methods for controlling gibberellin levels” (Monsanto Technology, LLC, priority 1998, dated 2004).

Columns and labels:
[1] = tested on: constitutively GA-deficient transgenic dwarf soybean line 719; test: Field trial of seed coating application rates, GA-deficient soybean; type: in vivo, Glycine max; details: seed coating
Experimental: GA3, GA3-3-acetate, GA5, GA9, and GA12 are evaluated in further field trials. […] The objectives of these tests are: 1) to determine if seed coatings, as compared to imbibition, of GA compounds facilitate rescue of constitutively GA-deficient transgenic dwarf soybeans (transgenic lines 719−2 plus 719+17) without causing elongation of wild-type soybeans (line A4922), and 2) to determine the seed treatment rate ranges for each of the selected GA compounds that would provide rescue of constitutively GA-deficient transgenic dwarf soybeans (transgenic lines 719−2 plus 719+17) without causing elongation of wild-type soybeans (line A4922).
Seeds are treated with GA3, GA5, GA9, GA12, and GA3-3-acetate at rates of 0, 0.1, 1, 10, and 100 μg/seed. These GA compounds are applied to the seeds using a Hege 11 seed treater (Hans-Ulrich Hege GmbH & Co., Waldenburg, Germany); 100% acetone is used as the carrier solvent. The amount of liquid introduced into the seed treater is six fluid ounces/100 lbs seed rate. In addition, GA12 is tested at 50 μg/seed. The untreated control (UTC) consisted of dry, untreated seeds. Seeds of constitutively GA-deficient transgenic dwarf soybean line 719 and wild-type A4922 are sown in both light and heavy soil. The planting depth is 0.5 to 1 inch (1.27 to 2.54 cm); watering is via drip irrigation. The experiment is carried out in three repetitions, using 25 seeds/plot (one five foot (152.4 cm) long row) for line 719, and 75 seeds/plot (two eight foot (243.8 cm) rows) for line A4922. Observations included total emergence, number of dwarfs not rescued, uniformity in plant height, average plant height, visual notes, and digital photos.
In all the experiments reported in Tables 17-24, treatments are replicated three times in a randomized block design. Data are analyzed using LSD (least significant difference) 0.05 probability using the PRM 5.0 Statistical Analysis Program (SAS Institute, North Carolina).

[2] = tested on: transgenic line 719 soybean; test: Field trial of seed coatings under soil compaction / different soils, GA-deficient soybean; type: in vivo, Glycine max; details: for Count (emergence) / Dwarfs (number of dwarfs not rescued) / Dwarfs (number not rescued): Line 719
[3] = Distribution of 14C label in soybean plant parts after seed treatment
Experimental: ^14C-radiolabelled compounds are obtained from Lew Mander (Australian National University). ^14C-GA3 is dissolved in water:ethanol, 80:20, v/v; ^14C-GA9 and ^14C-GA12 are dissolved in 100% ethanol. Seeds of Asgrow 3237 soybeans are treated separately with solutions of each of the ^14C-radiolabelled compounds (1.7-6.8 μg; 10-40 ppm; 111,000-2,000,000 dpm/seed) by placing one to four μl of the dosing solution directly on the seed coat (^14C-GA3, GA9, and GA12), or on the hilum portion of the seed (^14C-GA3). After evaporation of the carrier solvent (approx. one hour), the treated seed is planted in containers containing approximately 30 gm of Metromix-350, and transferred to a growth chamber. Plants are grown under a 12 hour light/12 hour dark regime at 92° F. (33° C.)and 75% humidity. The pattern of uptake and translocation of ^14C-radioactivity in treated seed is monitored up to 12 days past initial treatment. For most experiments, three replicate plants are harvested at one hour after treatment, one day after treatment (DAT), two DAT, three DAT, six or seven DAT, and 12 DAT. At the time of each harvest, plants are divided into leaves, epicotyl, cotyledon, hypocotyl, and roots. The level of ^14C-radioactivity in different plant parts is determined by extraction of plant tissues with aqueous methanol and scintillation counting. The extent of metabolism of the ^14C-labelled GA compounds in planta is determined by HPLC analysis of plant extracts. The details are as follows.
The general extraction procedure consisted of blending the plant parts in a high speed polytron tissue homogenizer for 1-5 minutes with 10-20 ml of ice-cold methanol:water, 80:20, v/v, followed by vacuum filtration through a Whatman glass fiber filter. The filter cake is re-extracted as necessary using the procedure described above until an insignificant amount of radioactivity is removed. Prior to combining the extracts from each sample, aliquots are weighed and analyzed by liquid scintillation counting (LSC) to determine the amount of extracted radioactivity in each extract. Aliquots of the air-dried filter cakes are combusted and analyzed by LSC in order to determine the amount of non-extracted radioactivity. The extracts are combined and, when necessary, concentrated by rotary evaporation at a bath temperature of less than 35° C. to a small volume for analysis by HPLC to determine the extent of metabolism of the ^14C-labelled GA compounds in planta.

[4] = Heavy soil - Loose, target rate 1.0 μg/seed, Table 23
[5] = Heavy soil - Loose, target rate 10.0 μg/seed, Table 23
[6] = Heavy soil - Loose, target rate 40.0 μg/seed, Table 23
[7] = Heavy soil - compacted, target rate 1.0 μg/seed, Table 23
[8] = Heavy soil - compacted, target rate 10.0 μg/seed, Table 23
[9] = Heavy soil - compacted, target rate 40.0 μg/seed, Table 23
[10] = Heavy soil - loose, target rate 40.0 μg/seed, Table 22
[11] = Light soil - Compacted, target rate 40.0 μg/seed, Table 22
[12] = Light soil - Loose, target rate 1.0 μg/seed, Table 24
[13] = Light soil - Loose, target rate 10.0 μg/seed, Table 24
[14] = Light soil - Loose, target rate 40.0 μg/seed, Table 24
[15] = Light soil - compacted, target rate 1.0 μg/seed, Table 24
[16] = Light soil - compacted, target rate 10.0 μg/seed, Table 24
[17] = Light soil - compacted, target rate 40.0 μg/seed, Table 24

## C=C1C[C@]23C[C@H]1CC[C@H]2[C@]1(C)CCC[C@@](C)(C(=O)O)[C@H]1[C@@H]3C(=O)O [GA12]
[1]; 0.1 μg compound per seed
  719 Height, cm, Heavy soil: 4.0 d-i cm
  719 Height, cm, Light soil: 4.0 g·cm
  No. 719 Emerged, Heavy soil: 20.7 a-d
  No. 719 Emerged, Light soil: 22.3 a
  No. 719 Not Rescued, Heavy soil: 4.3 bc
  No. 719 Not Rescued, Light soil: 6.3 b
[1]; 1 μg compound per seed
  719 Height, cm, Heavy soil: 3.3 e-i cm
  719 Height, cm, Light soil: 4.0 g·cm
  No. 719 Emerged, Heavy soil: 21.0 abc
  No. 719 Emerged, Light soil: 22.0 a
  No. 719 Not Rescued, Heavy soil: 5.3 ab
  No. 719 Not Rescued, Light soil: 3.7 cd
[1]; 10 μg compound per seed
  719 Height, cm, Heavy soil: 3.0 f-i cm
  719 Height, cm, Light soil: 2.3 cm·h
  No. 719 Emerged, Heavy soil: 22.3 ab
  No. 719 Emerged, Light soil: 21.0 ab
  No. 719 Not Rescued, Heavy soil: 1.7 def
  No. 719 Not Rescued, Light soil: 1.7 efg
[1]; 50 μg compound per seed
  719 Height, cm, Heavy soil: 3.3 e-i cm
  719 Height, cm, Light soil: 2.3 cm·h
  No. 719 Emerged, Heavy soil: 23.7 a
  No. 719 Emerged, Light soil: 22.3 a
  No. 719 Not Rescued, Heavy soil: 5.0 bc
  No. 719 Not Rescued, Light soil: 3.0 cde
[1]; 100 μg compound per seed
  719 Height, cm, Heavy soil: 2.7 ghi cm
  719 Height, cm, Light soil: 2.0 cm·h
  No. 719 Emerged, Heavy soil: 20.7 a-d
  No. 719 Emerged, Light soil: 21.3 ab
  No. 719 Not Rescued, Heavy soil: 2.0 de
  No. 719 Not Rescued, Light soil: 1
[2]; [4]
  Count (emergence): 36.0 ab
  Dwarfs (number of dwarfs not rescued): 10.0 a
[2]; [5]
  Count (emergence): 35.3 abc
  Dwarfs (number of dwarfs not rescued): 7.0 b
[2]; [6]
  Count (emergence): 35.3 abc
  Dwarfs (number of dwarfs not rescued): 3.3 c
[2]; [7]
  Count (emergence): 18.7 ab
  Dwarfs (number of dwarfs not rescued): 4.0 a
[2]; [8]
  Count (emergence): 13.0 b-e
  Dwarfs (number of dwarfs not rescued): 2.0 b
[2]; [9]
  Count (emergence): 22.7 a
  Dwarfs (number of dwarfs not rescued): 1.3 bc
[2]; [10]
  Count (emergence): 35 abc
  Dwarfs (number of dwarfs not rescued): 3.3 c
[2]; [11]
  Count (emergence): 42 a
  Dwarfs (number of dwarfs not rescued): 3.7 bc
[2]; [12]
  Count (emergence): 46.3 a
  Dwarfs (number not rescued): 17.3 b
[2]; [13]
  Count (emergence): 48.3 a
  Dwarfs (number not rescued): 11.3 c
[2]; [14]
  Count (emergence): 46.0 a
  Dwarfs (number not rescued): 7.7
[2]; [15]
  Count (emergence): 40.3 a
  Dwarfs (number not rescued): 8.3 a
[2]; [16]
  Count (emergence): 40.0 ab
  Dwarfs (number not rescued): 4.3 b
[2]; [17]
  Count (emergence): 42.0 a
  Dwarfs (number not rescued): 3.7 bc
[2]; based on the last two field trials
  rank of potential for rescuing GA-deficient dwarf soybeans without decreasing emergence: GA9>GA5>GA3-3-acetate>GA3>GA12
[3]; 3 DAP
  ^14C Label Distribution (% of dose), Cotyledon: 55 % of dose
  ^14C Label Distribution (% of dose), Hypocotyl: 1.7 % of dose
  ^14C Label Distribution (% of dose), Root: 3.5 % of dose
[3]; 12 DAP
  ^14C Label Distribution (% of dose), Cotyledon: 45 % of dose
  ^14C Label Distribution (% of dose), Epicotyl: 0.2 % of dose
  ^14C Label Distribution (% of dose), Hypocotyl: 0.9 % of dose
  ^14C Label Distribution (% of dose), Leaves: 0.7 % of dose
  ^14C Label Distribution (% of dose), Root: 3.0 % of dose
